Measurements published in US8674109B2, “Pesticidal compositions” (Dow AgroSciences, LLC., priority 2009, dated 2014).

What was measured:
Format in all cases: in vivo
[1] = tested on: corn earworm (CEW; Helicoverpa zea: Lepidoptera); assay: Insecticidal test for corn earworm, 128-well diet tray assay
Experimental: Insecticidal Test for Corn Earworm (Helicoverpa zea)
(§1) Bioassays on corn earworm (CEW; Helicoverpa zea: Lepidoptera) were conducted using a 128-well diet tray assay. Three to five second instar CEW larvae were placed in each well (3 mL) of the diet tray that had been previously filled with 1 mL of artificial diet to which 50 μg/cm^2 of the test compound (dissolved in 50 μL of 90:10 acetone-water mixture) had been applied (to each of eight wells) and then allowed to dry. Trays were covered with a clear self-adhesive cover, and held at 25° C., 14:10 light-dark for six days. Percent mortality was recorded for the larvae in each well; activity in the eight wells was then averaged.

[2] = tested on: green peach aphid (Myzus persicae); assay: Insecticidal test for green peach aphid in foliar spray assay on cabbage seedlings
Experimental: Insecticidal Test for Green Peach Aphid (Myzus persicae) in Foliar Spray Assay
Cabbage seedlings grown in 3-inch pots, with 2-3 small (3-5 cm) true leaves, were used as test substrate. The seedlings were infested with 20-50 green peach aphids (wingless adult and nymph) one day prior to chemical application. Four pots with individual seedlings were used for each treatment. Compounds (2 mg) were dissolved in 2 mL of acetone/methanol (1:1) solvent, forming stock solutions of 1000 ppm. The stock solutions were diluted 5× with 0.025% Tween 20 in H2O to obtain the solution at 200 ppm. A hand-held Devilbiss sprayer was used for spraying a solution to both sides of cabbage leaves until runoff. Reference plants (solvent check) were sprayed with the diluent only. Treated plants were held in a holding room for three days at approximately 25° C. and 40% relative humidity (RH) prior to grading. Evaluation was conducted by counting the number of live aphids per plant under a microscope. Insecticidal activity was measured by using Abbott's correction formula are presented in Table 2: Corrected % Control=100*(X−Y)/X
where • X=No. of live aphids on solvent check plants • Y=No. of live aphids on treated plants

[3] = tested on: beet armyworm (BAW; Spodoptera exigua: Lepidoptera); assay: Insecticidal test for beet armyworm, 128-well diet tray assay
Experimental: Insecticidal Test for Beet Armyworm (Spodoptera exigua)
as §1, with “beet armyworm (BAW; Spodoptera exigua:” for “corn earworm (CEW; Helicoverpa zea:”, “BAW” for “CEW”

Compound: CC(OC(=O)Nc1ccc(-c2ncn(-c3ccc(OC(F)(F)F)cc3)n2)cc1)c1c(F)c(F)c(F)c(F)c1F (stereo not drawn) [Compound 114]
- % Mortality CEW 50 μg/cm^2 [1]: B (Less than 50)
- % Mortality GPA 200 ppm [2]: B (Less than 80)
- % Mortality BAW 50 μg/cm^2 [3]: A (50-100)

Compound: CC(C)(OC(=O)Nc1ccc(-c2ncn(-c3ccc(OC(F)(F)F)cc3)n2)cc1)c1ccc(C(F)(F)F)cc1 [Compound 49]
- % Mortality CEW 50 μg/cm^2 [1]: A (50-100)
- % Mortality GPA 200 ppm [2]: B (Less than 80)
- % Mortality BAW 50 μg/cm^2 [3]: A (50-100)

Compound: O=C(Nc1ccc(-c2ncn(-c3ccc(OC(F)(F)F)cc3)n2)cc1)OC(c1ccoc1)C(F)(F)F (stereo not drawn) [Compound 80]
- % Mortality CEW 50 μg/cm^2 [1]: A (50-100)
- % Mortality GPA 200 ppm [2]: B (Less than 80)
- % Mortality BAW 50 μg/cm^2 [3]: A (50-100)

Compound: CC(OC(=O)Nc1ccc(-c2ncn(-c3ccc(OC(F)(F)F)cc3)n2)cc1)c1cnc(Cl)s1 (stereo not drawn) [Compound 54]
- % Mortality CEW 50 μg/cm^2 [1]: A (50-100)
- % Mortality GPA 200 ppm [2]: B (Less than 80)
- % Mortality BAW 50 μg/cm^2 [3]: A (50-100)

Compound: Cc1cc(Cl)ccc1OC(=O)Nc1ccc(-c2ncn(-c3ccc(OC(F)(F)F)cc3)n2)cc1 [Compound 128]
- % Mortality CEW 50 μg/cm^2 [1]: A (50-100)
- % Mortality GPA 200 ppm [2]: B (Less than 80)
- % Mortality BAW 50 μg/cm^2 [3]: A (50-100)

Compound: CC(C)c1ccc(C(C)OC(=O)Nc2ccc(-c3ncn(-c4ccc(OC(F)(F)F)cc4)n3)cc2)cc1 (stereo not drawn) [Compound 38]
- % Mortality CEW 50 μg/cm^2 [1]: A (50-100)
- % Mortality GPA 200 ppm [2]: B (Less than 80)
- % Mortality BAW 50 μg/cm^2 [3]: A (50-100)

Compound: CC(OC(=O)Nc1ccc(-c2ncn(-c3ccc(OC(F)(F)F)cc3)n2)cc1)c1ccc(F)cc1 (stereo not drawn) [Compound 84]
- % Mortality CEW 50 μg/cm^2 [1]: A (50-100)
- % Mortality GPA 200 ppm [2]: B (Less than 80)
- % Mortality BAW 50 μg/cm^2 [3]: A (50-100)

Compound: CCC(OC(=O)Nc1ccc(-c2ncn(-c3ccc(C(F)(F)F)cc3)n2)cc1)c1ccccc1 (stereo not drawn) [Compound 30]
- % Mortality CEW 50 μg/cm^2 [1]: A (50-100)
- % Mortality GPA 200 ppm [2]: B (Less than 80)
- % Mortality BAW 50 μg/cm^2 [3]: A (50-100)

Compound: C#CC(OC(=O)Nc1ccc(-c2ncn(-c3ccc(OC(F)(F)F)cc3)n2)cc1)c1ccc(C(F)(F)F)nc1 (stereo not drawn) [Compound 53]
- % Mortality CEW 50 μg/cm^2 [1]: A (50-100)
- % Mortality GPA 200 ppm [2]: B (Less than 80)
- % Mortality BAW 50 μg/cm^2 [3]: A (50-100)

Compound: C#CC(OC(=O)Nc1ccc(-c2ncn(-c3ccc(OC(F)(F)F)cc3)n2)cc1)c1ccc(C(F)(F)F)cc1 (stereo not drawn) [Compound 66]
- % Mortality CEW 50 μg/cm^2 [1]: A (50-100)
- % Mortality GPA 200 ppm [2]: B (Less than 80)
- % Mortality BAW 50 μg/cm^2 [3]: A (50-100)

Compound: CC(OC(=O)Nc1ccc(-c2ncn(-c3ccc(OC(F)(F)F)cc3)n2)cc1)c1ccc(-c2ccccc2)cc1 (stereo not drawn) [Compound 116]
- % Mortality CEW 50 μg/cm^2 [1]: A (50-100)
- % Mortality GPA 200 ppm [2]: B (Less than 80)
- % Mortality BAW 50 μg/cm^2 [3]: B (Less than 50)

Compound: Cc1noc(C)c1C(C)OC(=O)Nc1ccc(-c2ncn(-c3ccc(OC(F)(F)F)cc3)n2)cc1 (stereo not drawn) [Compound 86]
- % Mortality CEW 50 μg/cm^2 [1]: A (50-100)
- % Mortality GPA 200 ppm [2]: B (Less than 80)
- % Mortality BAW 50 μg/cm^2 [3]: A (50-100)

Compound: COc1ccc(C(C)OC(=O)Nc2ccc(-c3ncn(-c4ccc(OC(F)(F)F)cc4)n3)cc2)cc1 (stereo not drawn) [Compound 97]
- % Mortality CEW 50 μg/cm^2 [1]: A (50-100)
- % Mortality GPA 200 ppm [2]: B (Less than 80)
- % Mortality BAW 50 μg/cm^2 [3]: A (50-100)

Compound: Cc1ccc(C(C)OC(=O)Nc2ccc(-c3ncn(-c4ccc(OC(F)(F)F)cc4)n3)cc2)cc1 (stereo not drawn) [Compound 91]
- % Mortality CEW 50 μg/cm^2 [1]: A (50-100)
- % Mortality GPA 200 ppm [2]: B (Less than 80)
- % Mortality BAW 50 μg/cm^2 [3]: A (50-100)

Compound: CCC(OC(=O)Nc1ccc(-c2ncn(-c3ccc(OC(F)(F)F)cc3)n2)cc1)c1ccc(C(F)(F)F)cc1 (stereo not drawn) [Compound 67]
- % Mortality CEW 50 μg/cm^2 [1]: A (50-100)
- % Mortality GPA 200 ppm [2]: B (Less than 80)
- % Mortality BAW 50 μg/cm^2 [3]: A (50-100)

Compound: CCC(OC(=O)Nc1ccc(-c2ncn(-c3ccc(OC(F)(F)F)cc3)n2)cc1)c1cccc(Br)c1 (stereo not drawn) [Compound 63]
- % Mortality CEW 50 μg/cm^2 [1]: A (50-100)
- % Mortality GPA 200 ppm [2]: B (Less than 80)
- % Mortality BAW 50 μg/cm^2 [3]: A (50-100)

Compound: CCOc1cnc(C(C)(C)OC(=O)Nc2ccc(-c3ncn(-c4ccc(OC(F)(F)F)cc4)n3)cc2)nc1 [Compound 3, {4-[1-(4-trifluoromethoxyphenyl)-1H-[1,2,4]triazol-3-yl]-phenyl}-carbamic acid 1-(5-ethoxy-pyrimidin-2-yl)-1-methyl-ethyl ester]
- % Mortality CEW 50 μg/cm^2 [1]: B (Less than 50)
- % Mortality GPA 200 ppm [2]: B (Less than 80)
- % Mortality BAW 50 μg/cm^2 [3]: A (50-100)

Compound: CCC#CC(C)(C)OC(=O)Nc1ccc(-c2ncn(-c3ccc(OC(F)(F)F)cc3)n2)cc1 [Compound 96]
- % Mortality CEW 50 μg/cm^2 [1]: A (50-100)
- % Mortality GPA 200 ppm [2]: B (Less than 80)
- % Mortality BAW 50 μg/cm^2 [3]: A (50-100)

Compound: Cc1cc(C)c(CCOC(=O)Nc2ccc(-c3ncn(-c4ccc(OC(F)(F)F)cc4)n3)cc2)c(C)c1 [Compound 121]
- % Mortality CEW 50 μg/cm^2 [1]: A (50-100)
- % Mortality GPA 200 ppm [2]: B (Less than 80)
- % Mortality BAW 50 μg/cm^2 [3]: B (Less than 50)

Compound: CC(OC(=O)Nc1ccc(-c2ncn(-c3ccc(OC(F)(F)F)cc3)n2)cc1)c1ccc(C(F)(F)F)cc1C(F)(F)F (stereo not drawn) [Compound 115]
- % Mortality CEW 50 μg/cm^2 [1]: B (Less than 50)
- % Mortality GPA 200 ppm [2]: B (Less than 80)
- % Mortality BAW 50 μg/cm^2 [3]: B (Less than 50)

Compound: COC(=O)Nc1ccc(-c2ncn(-c3ccc(OC(F)(F)F)cc3)n2)cc1 [Compound 104]
- % Mortality CEW 50 μg/cm^2 [1]: A (50-100)
- % Mortality GPA 200 ppm [2]: B (Less than 80)
- % Mortality BAW 50 μg/cm^2 [3]: A (50-100)

Compound: CC(OC(=O)Nc1ccc(-c2ncn(-c3ccc(OC(F)(F)F)cc3)n2)cc1)c1cccnc1 (stereo not drawn) [Compound 110]
- % Mortality CEW 50 μg/cm^2 [1]: A (50-100)
- % Mortality GPA 200 ppm [2]: B (Less than 80)
- % Mortality BAW 50 μg/cm^2 [3]: A (50-100)

Compound: O=C(Nc1ccc(-c2ncn(-c3ccc(OC(F)(F)F)cc3)n2)cc1)OCc1c(Cl)cccc1Cl [Compound 111]
- % Mortality CEW 50 μg/cm^2 [1]: A (50-100)
- % Mortality GPA 200 ppm [2]: B (Less than 80)
- % Mortality BAW 50 μg/cm^2 [3]: B (Less than 50)

Compound: CC(Cc1ccccc1)OC(=O)Nc1ccc(-c2ncn(-c3ccc(OC(F)(F)F)cc3)n2)cc1 (stereo not drawn) [Compound 107]
- % Mortality CEW 50 μg/cm^2 [1]: A (50-100)
- % Mortality GPA 200 ppm [2]: B (Less than 80)
- % Mortality BAW 50 μg/cm^2 [3]: A (50-100)

Compound: COc1ccc(CC(C)(C)OC(=O)Nc2ccc(-c3ncn(-c4ccc(OC(F)(F)F)cc4)n3)cc2)cc1 [Compound 100]
- % Mortality CEW 50 μg/cm^2 [1]: B (Less than 50)
- % Mortality GPA 200 ppm [2]: B (Less than 80)
- % Mortality BAW 50 μg/cm^2 [3]: B (Less than 50)

Compound: CCCCCCC(C)OC(=O)Nc1ccc(-c2ncn(-c3ccc(OC(F)(F)F)cc3)n2)cc1 (stereo not drawn) [Compound 102]
- % Mortality CEW 50 μg/cm^2 [1]: B (Less than 50)
- % Mortality GPA 200 ppm [2]: B (Less than 80)
- % Mortality BAW 50 μg/cm^2 [3]: B (Less than 50)

Compound: Cc1cccc(C)c1C(C)OC(=O)Nc1ccc(-c2ncn(-c3ccc(OC(F)(F)F)cc3)n2)cc1 (stereo not drawn) [Compound 89]
- % Mortality CEW 50 μg/cm^2 [1]: A (50-100)
- % Mortality GPA 200 ppm [2]: B (Less than 80)
- % Mortality BAW 50 μg/cm^2 [3]: A (50-100)

Compound: O=C(Nc1ccc(-c2ncn(-c3ccc(OC(F)(F)F)cc3)n2)cc1)OC(c1ccccc1)c1ccccc1 [Compound 83]
- % Mortality CEW 50 μg/cm^2 [1]: A (50-100)
- % Mortality GPA 200 ppm [2]: B (Less than 80)
- % Mortality BAW 50 μg/cm^2 [3]: A (50-100)

Compound: CC1(OC(=O)Nc2ccc(-c3ncn(-c4ccc(OC(F)(F)F)cc4)n3)cc2)CCCCC1 [Compound 4]
- % Mortality CEW 50 μg/cm^2 [1]: B (Less than 50)
- % Mortality GPA 200 ppm [2]: B (Less than 80)
- % Mortality BAW 50 μg/cm^2 [3]: B (Less than 50)

Compound: CC(OC(=O)Nc1ccc(-c2ncn(-c3ccc(OC(F)(F)F)cc3)n2)cc1)c1ccsc1 (stereo not drawn) [Compound 77]
- % Mortality CEW 50 μg/cm^2 [1]: A (50-100)
- % Mortality GPA 200 ppm [2]: B (Less than 80)
- % Mortality BAW 50 μg/cm^2 [3]: A (50-100)

Compound: CC(OC(=O)Nc1ccc(-c2ncn(-c3ccc(OC(F)(F)F)cc3)n2)cc1)c1ccc(Br)cc1 (stereo not drawn) [Compound 39]
- % Mortality CEW 50 μg/cm^2 [1]: A (50-100)
- % Mortality GPA 200 ppm [2]: B (Less than 80)
- % Mortality BAW 50 μg/cm^2 [3]: A (50-100)

Compound: COc1ccc(C(C)OC(=O)Nc2ccc(-c3ncn(-c4ccc(OC(F)(F)F)cc4)n3)cc2)cn1 (stereo not drawn) [Compound 55]
- % Mortality CEW 50 μg/cm^2 [1]: A (50-100)
- % Mortality GPA 200 ppm [2]: B (Less than 80)
- % Mortality BAW 50 μg/cm^2 [3]: A (50-100)

Compound: O=C(Nc1ccc(-c2ncn(-c3ccc(OC(F)(F)F)cc3)n2)cc1)OC1CCc2ccccc2O1 (stereo not drawn) [Compound 95]
- % Mortality CEW 50 μg/cm^2 [1]: A (50-100)
- % Mortality GPA 200 ppm [2]: B (Less than 80)
- % Mortality BAW 50 μg/cm^2 [3]: A (50-100)
